Results taken from patent US10342796B2, “Acrylanilide derivative, preparation method, and applications thereof in pharmacy” (Ancureall Pharmaceutical (Shanghai) Co., Ltd., priority 2015, dated 2019).
Read-outs that look alike come from different tables or passages of the source.

Key:
Experiment in all cases: Growth inhibition GI50 in vitro (CCK8/MTT, 72 h)
H1975 (EGFR L858R/T790M) = type: cell-based, human; conditions: Homo sapiens, NCI-H1975
HCC827 (EGFR dE746-A750) = type: cell-based, human; conditions: Homo sapiens
PC-9 (EGFR dE746-A750) = type: cell-based, human; conditions: Homo sapiens
[1] = test system: PC-9ER (EGFR delE746-A750/T790M); type: cell-based, human; conditions: Homo sapiens, PC-9/ER; EGFR mutant cell line; range of GI50; read-out: GI50 PC9ER
N87 (HER2 Amp) = type: cell-based, human; conditions: Homo sapiens
AU565 (Her2 amp) = type: cell-based, human; conditions: Homo sapiens
SK-BR-3 (Her2 amp) = type: cell-based, human; conditions: Homo sapiens
Calu-3 (Her2 amp) = type: cell-based; conditions: Homo sapiens; Calu-3, EGFR wt, Her2 amp; read-out: GI50
H292 (EGFR WT) = type: cell-based; conditions: Homo sapiens, NCI-H292; H292, EGFR wt; read-out: GI50
[2] = test system: A431 (EGFR WT, amplification and high expression); type: cell-based, human; conditions: Homo sapiens, A-431
A549 (EGFR WT) = type: cell-based, human; conditions: Homo sapiens
[3] = test system: H1299 (EGFR wt, Nras Q61K); type: cell-based, human; conditions: Homo sapiens, NCI-H1299
[4] = test system: H460 (EGFR wt, Kras G61H); type: cell-based, human; conditions: Homo sapiens, NCI-H460

GI50 (H1975 (EGFR L858R/T790M); EGFR mutant cell line, range of GI50, read-out: GI50 H1975): 10 to 100 nM
GI50 (H1975 (EGFR L858R/T790M); H1975, EGFR L858R/T790M, read-out: GI50): 12.5 nM
GI50 (HCC827 (EGFR dE746-A750); HCC827, EGFR mutant cell line, range of GI50, read-out: GI50 HCC827): < 10 nM
GI50 (HCC827 (EGFR dE746-A750); HCC827, EGFR dE746-A750, read-out: GI50): 9 nM
GI50 (PC-9 (EGFR dE746-A750); EGFR mutant cell line, range of GI50, read-out: GI50 PC-9): < 10 nM
GI50 (PC-9 (EGFR dE746-A750); PC-9, EGFR dE746-A750, read-out: GI50): 3.38 nM
GI50 [1]: 10 to 100 nM
GI50 (SK-BR-3 (Her2 amp); SK-BR-3, HER2 positive cell line, range of GI50, read-out: GI50 SK-BR-3): 10 to 100 nM
GI50 (SK-BR-3 (Her2 amp); SK-BR-3, EGFR wt, Her2 amp, read-out: GI50): 78.1 nM
GI50 (Calu-3 (Her2 amp)): 23.4 nM
GI50 (H292 (EGFR WT)): > 1000 nM
GI50 ([2]; A431, EGFR wt, read-out: GI50): 315 nM
GI50 ([2]; EGFR wild type cell line, range of GI50, read-out: GI50 A431): 100 to 1000 nM
GI50 (A549 (EGFR WT); A549, EGFR wild type cell line, range of GI50, read-out: GI50 A549): > 1000 nM
GI50 (A549 (EGFR WT); A549, EGFR wt, Kras G12S, read-out: GI50): > 1000 nM
GI50 ([3]; EGFR wild type cell line, range of GI50, read-out: GI50 H1299): > 1000 nM
GI50 ([3]; H1299, EGFR wt, Nras Q61K, read-out: GI50): > 1000 nM
GI50 ([4]; EGFR wild type cell line, range of GI50, read-out: GI50 H460): > 1000 nM
GI50 ([4]; H460, EGFR wt, Kras G61H, read-out: GI50): > 1000 nM
SMILES: C=CC(=O)Nc1cc(Nc2cc(-c3cn(C(C)C)c4ccccc34)ncn2)c(OC)cc1N(C)CCN(C)C [Compound 183]
GI50 (N87 (HER2 Amp); HER2 positive cell line, range of GI50, read-out: GI50 N87): 10 to 100 nM
GI50 (N87 (HER2 Amp); N87, EGFR wt, Her2 amp, read-out: GI50): 19.5 nM
GI50 (AU565 (Her2 amp); AU565, HER2 positive cell line, range of GI50, read-out: GI50 AU-565): 10 to 100 nM
GI50 (AU565 (Her2 amp); AU565, EGFR wt, Her2 amp, read-out: GI50): 19.5 nM
